In publication doi:10.1101/2025.10.20.683482v1 (biorxiv, 2025):

How the values were obtained:
67nR = assay: cells; settings: 72 h, read-out: 67nR
BxPC3 = assay: cells; settings: Homo sapiens, BXPC-3, 72 h, read-out: BxPC3
MDA-MB 231 = assay: cells; settings: Homo sapiens, MDA-MB-231, 72 h, read-out: MDA-MB 231
4T1 = assay: cells; settings: Mus musculus, 4T1, 72 h, read-out: 4T1
MIA PaCa = assay: cells; settings: Homo sapiens, MIA PaCa-2, 72 h, read-out: MIA PaCa
[1] = target: Human recombinant Methionine Aminopeptidase 2 (MetAp2) (Homo sapiens, UniProt P50579); assay: fluorometric H-Met-AMC hydrolysis; format: biochemical
Sequence of Human recombinant Methionine Aminopeptidase 2 (MetAp2) (P50579 2-478): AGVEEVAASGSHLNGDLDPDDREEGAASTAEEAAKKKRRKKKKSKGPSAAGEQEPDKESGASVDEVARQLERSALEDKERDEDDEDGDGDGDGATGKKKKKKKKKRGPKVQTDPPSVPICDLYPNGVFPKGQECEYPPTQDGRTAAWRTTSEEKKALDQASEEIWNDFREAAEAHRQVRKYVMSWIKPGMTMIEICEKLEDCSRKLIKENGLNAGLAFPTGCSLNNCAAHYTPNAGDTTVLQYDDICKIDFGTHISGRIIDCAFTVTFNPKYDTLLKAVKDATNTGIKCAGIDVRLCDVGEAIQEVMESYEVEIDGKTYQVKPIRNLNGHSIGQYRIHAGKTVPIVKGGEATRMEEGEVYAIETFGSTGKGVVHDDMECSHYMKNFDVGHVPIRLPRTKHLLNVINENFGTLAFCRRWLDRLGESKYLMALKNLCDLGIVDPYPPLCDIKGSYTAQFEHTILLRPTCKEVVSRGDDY

IC50 (67nR) | IC50 (BxPC3) | IC50 (MDA-MB 231) | IC50 (4T1) | IC50 (MIA PaCa) | IC50 [1] | Structure (SMILES)
16.8 ± 2.74 µM | 13.9 ± 1.77 µM | 20.4 ± 1.22 µM | 4.67 ± 1.13 µM | 11.5 ± 2.06 µM | – | O=[N+]([O-])c1ccc(O)c2ncccc12 [compound 1, 5-nitroquinolin-8-ol]
23.3 ± 1.5 µM | 15.2 ± 2.01 µM | 19.2 ± 1.52 µM | 4.92 ± 1.63 µM | 10.4 ± 2.26 µM | 4.3 µM | CC(C)(C)[Si](C)(C)Oc1ccc([N+](=O)[O-])c2cccnc12 [compound 2]
14.4 ± 2.97 µM | 16.7 ± 1.73 µM | 17.3 ± 1.07 µM | 2.76 ± 0.21 µM | 9.71 ± 2.96 µM | 2.86 µM | CC(C)[Si](Oc1ccc([N+](=O)[O-])c2cccnc12)(C(C)C)C(C)C [compound 3]
15.6 ± 2.21 µM | 12.8 ± 1.09 µM | 15.9 ± 1.47 µM | 4.6 ± 2.41 µM | 10.4 ± 1.56 µM | 3.42 µM | CC(C)(C)[Si](Oc1ccc([N+](=O)[O-])c2cccnc12)(c1ccccc1)c1ccccc1 [compound 4]
25.2 ± 1.96 µM | 25.6 ± 3.35 µM | 13.1 ± 1.96 µM | 4.22 ± 0.32 µM | 13.8 ± 0.85 µM | – | CS(=O)(=O)Oc1ccc([N+](=O)[O-])c2cccnc12 [compound 5]
10.3 ± 1.45 µM | 11.7 ± 1.64 µM | 13.8 ± 2.98 µM | 4.13 ± 1.17 µM | 9.63 ± 2.35 µM | > 100 µM | O=[N+]([O-])c1ccc(OS(=O)(=O)C(F)(F)F)c2ncccc12 [compound 6]
– | 18.1 ± 2.86 µM | 34.7 ± 2.17 µM | 2.43 ± 1.05 µM | 28.2 ± 3.35 µM | 21.1 µM | C[Si](C)(C)CCOCOc1ccc([N+](=O)[O-])c2cccnc12 [compound 7]
– | 44.1 ± 2.09 µM | > 100 µM | 25.4 ± 3.1 µM | 60.2 ± 1.52 µM | 92.1 µM | O=[N+]([O-])c1ccc(OCOCc2ccccc2)c2ncccc12 [compound 9]
